The target in data set [1] is T1, ATP-dependent translocase ABCB1 (Homo sapiens, UniProt P08183). Nature of the data set: TP_TRANSPORTER: transepithelial transport (basal to apical) in MDR1-expressing LLC-PK1 cells. The class given is functional, cell-based. The note with it: pig.
For data set [2], the target named is T1, ATP-dependent translocase ABCB1. Nature of the data set: TP_TRANSPORTER: inhibition of Daunorubicin transepithelial transport (basal to apical) (Daunorubicin: 0.1 uM) in MDR1-expressing LLC-PK1 cells. The class given is functional, cell-based.

T1 sequence (P08183 whole entry): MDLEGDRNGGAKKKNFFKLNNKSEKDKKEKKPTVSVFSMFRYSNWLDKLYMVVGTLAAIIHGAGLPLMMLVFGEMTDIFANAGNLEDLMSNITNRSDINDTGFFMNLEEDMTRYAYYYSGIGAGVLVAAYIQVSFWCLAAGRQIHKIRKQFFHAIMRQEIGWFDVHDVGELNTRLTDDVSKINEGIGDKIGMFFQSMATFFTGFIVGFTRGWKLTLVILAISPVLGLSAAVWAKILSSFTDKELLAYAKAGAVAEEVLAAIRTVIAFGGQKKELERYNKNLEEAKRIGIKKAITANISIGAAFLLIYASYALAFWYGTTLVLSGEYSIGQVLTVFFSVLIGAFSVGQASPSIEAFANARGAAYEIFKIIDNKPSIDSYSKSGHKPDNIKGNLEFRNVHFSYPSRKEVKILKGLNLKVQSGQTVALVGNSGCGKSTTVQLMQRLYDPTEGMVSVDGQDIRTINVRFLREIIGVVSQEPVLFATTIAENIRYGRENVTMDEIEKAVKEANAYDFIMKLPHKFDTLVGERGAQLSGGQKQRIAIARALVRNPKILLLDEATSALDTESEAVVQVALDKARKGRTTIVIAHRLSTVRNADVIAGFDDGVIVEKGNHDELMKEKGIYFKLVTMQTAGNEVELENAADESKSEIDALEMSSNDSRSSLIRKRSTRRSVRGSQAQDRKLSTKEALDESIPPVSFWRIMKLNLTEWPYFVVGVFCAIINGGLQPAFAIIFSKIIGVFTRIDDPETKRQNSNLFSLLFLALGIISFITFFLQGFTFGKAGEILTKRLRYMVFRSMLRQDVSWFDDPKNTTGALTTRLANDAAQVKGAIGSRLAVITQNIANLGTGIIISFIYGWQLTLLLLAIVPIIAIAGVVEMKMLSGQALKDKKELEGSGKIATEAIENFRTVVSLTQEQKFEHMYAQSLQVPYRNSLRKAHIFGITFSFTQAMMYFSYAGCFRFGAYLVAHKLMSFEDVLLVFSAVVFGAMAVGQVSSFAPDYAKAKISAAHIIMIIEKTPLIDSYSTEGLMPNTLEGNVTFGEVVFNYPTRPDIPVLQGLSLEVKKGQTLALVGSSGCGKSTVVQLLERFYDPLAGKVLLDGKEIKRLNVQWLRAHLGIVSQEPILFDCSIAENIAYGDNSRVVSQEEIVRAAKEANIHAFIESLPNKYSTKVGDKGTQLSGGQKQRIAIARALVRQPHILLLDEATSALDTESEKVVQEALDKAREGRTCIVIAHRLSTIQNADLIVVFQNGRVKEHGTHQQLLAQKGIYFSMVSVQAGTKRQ

Broadly, the IC50 is the concentration at which inhibition is half-maximal. Low values mean inhibition by little substance, high ones a need for much substance. For `COc1ccc2cc1Oc1cccc(c1)C[C@H]1c3c(cc4c(c3Oc3cc5c(cc3OC)CCN(C)[C@@H]5C2)OCO4)CCN1C` [CEPHARANTHIN], the Activity entry in data set [1] is “substrate [+]”. The compound further yielded an IC50 in data set [2] of 2.06 µM.
